This note sets out measurements from patent US4697022A, “Process for the preparation of optically-active carbazole derivatives, new R- and S-carbazole derivatives and pharmaceutical compositions containing these compounds” (Boehringer Mannheim GmbH, priority 1983, dated 1987).

For orientation: ED50 means the dose that gives a 50% effect, or the effect in half of the subjects.

For one assay, the system named is isoprenaline tachycardia. As to the kind of experiment: β-blocking action: inhibition of isoprenaline tachycardia in awake rabbits. Format: in vivo, rabbit. The note with it: for ED50: Oryctolagus cuniculus, iv, 50% inhibiting dosage, isoprenaline tachycardia, purity >99.4%, read-out: β-blockade ED50%; for β-blocking properties: in words.
The subject of assay [1] is blood vessels (blood pressure). The assay can be described thus: vasodilation: direct blood pressure lowering after a single i.v. administration in awake spontaneously hypertonic rats (SHR). The settings on record: for ED (30 mmHg): Rattus norvegicus, iv, dosage for lowering of blood pressure by 30 mm.Hg, awake SHR, single i.v. administration, purity >99.4%. Format: in vivo, rat (spontaneously hypertonic. How it is done:
(measured as direct blood pressure lowering after a single administration)
In awake, spontaneously hypertonic rats (SHR), catheters were implanted in the arteria femoralis and the vena jugularis. Via the veins, there were injected appropriate dosages of the enantiomers (R-carvedilol and S-carvedilol in dosages of 0.03; 0.1; 0.3; 1.0 and 3 mg/kg. i.v.) and the arterial blood pressure lowering was determined via the arterial pressure catheter (as an expression of the vasodilation). As a measure of the antihypertensive effect, there were calculated the dosages for lowering of the blood pressure by 30 mm.Hg.

With `COc1ccccc1OCCNC[C@@H](O)COc1cccc2[nH]c3ccccc3c12` [R-carvedilol, R-(+)-(1-Carbazol-4-yloxy)-3-[2-(2-methoxyphenoxy)]ethylaminopropan-2-ol], the ED50 with isoprenaline tachycardia (awake rabbits, i.v.) was 3.98 mg/kg. Moreover, the “β-blockade: difference factor of the dosages of R- and S-carvedilol” value in the assay with isoprenaline tachycardia (ratio of ED50% R-carvedilol to S-carvedilol, i.v., awake rabbits) amounted to 160. For the same compound, in assay [1], the ED (30 mmHg) was 2.96 mg/kg. The “vasodilation: difference factor of the dosages of R- and S-carvedilol” value in assay [1] (ratio of ED-30mmHg R-carvedilol to S-carvedilol, i.v., SHR) was found to be 11.
`COc1ccccc1OCCNC[C@H](O)COc1cccc2[nH]c3ccccc3c12` [S-carvedilol, S-(-)-(1-Carbazol-4-yloxy)-3-[2-(2-methoxyphenoxy)]ethylaminopropan-2-ol]: in the assay with isoprenaline tachycardia (awake rabbits, i.v.), the ED50 worked out at 0.025 mg/kg. Further, the β-blocking properties entry in the assay on isoprenaline tachycardia is “practically only S-carvedilol can be regarded as being a β-blocker”; in the assay on isoprenaline tachycardia (listed as Example 8), “displays β-blocking properties”. In assay [1], this compound returned an ED (30 mmHg) of 0.27 mg/kg. Besides, the “dosage for blood pressure lowering of 30 mm.Hg in comparison to β-blockade (times higher)” value in assay [1] (S-carvedilol, ED-30mmHg vs β-blockade ED50%) was “about 10 times”.
